Converted amounts (≈) assume the structure as drawn.
system: not listed separately; assay: Inhibitory activity against K-rasNRK cells; format: functional, cell-based, Rattus norvegicus

Row | SMILES | IC50
1 | SCCNCc1cc(-c2cccc3ccccc23)cc(CNCCS)n1 | 0.32 µg/mL (≈ 0.834 µM)

target: Protein farnesyltransferase (Homo sapiens, UniProt P49354+P49356); assay: Inhibition of [3H]farnesyl pyrophosphate binding to human farnesyltransferase; format: protein-complex assay

Row | SMILES | IC50
2 | NCCN [ETHYLENEDIAMINE] | 15.5 mM
3 | c1ccc(-c2ccccn2)nc1 | 100 mM
4 | CN(C)c1cc(CNCCS)nc(CNCCS)c1 | 0.62 mM
5 | c1cnc2c(c1)ccc1cccnc12 [PHENANTHROLINE] | 4 mM
6 | CCCC[C@@H](C)/C=C(C)/C=C(\C)C(=O)NC1=C[C@@](O)(/C=C/C=C/C=C/C(=O)NC2=C(O)CCC2=O)[C@@H]2O[C@@H]2C1=O [MANUMYCIN A] | 0.0119 mM
